According to US9533952B2, “N-prop-2-ynyl carboxamide derivatives and their use as TRPA1 antagonists” (Orion Corporation, priority 2012, dated 2017):

Biological target: TRPA1 (Homo sapiens, UniProt O75762)
Test: Determination of TRPA1 activity in vitro (TRPA1 antagonism in vitro)
Format: cell-based
Settings: procedure of Wei et al., Anesthesiology 111 (2009) 147-154

Sequence of TRPA1 (O75762 whole entry): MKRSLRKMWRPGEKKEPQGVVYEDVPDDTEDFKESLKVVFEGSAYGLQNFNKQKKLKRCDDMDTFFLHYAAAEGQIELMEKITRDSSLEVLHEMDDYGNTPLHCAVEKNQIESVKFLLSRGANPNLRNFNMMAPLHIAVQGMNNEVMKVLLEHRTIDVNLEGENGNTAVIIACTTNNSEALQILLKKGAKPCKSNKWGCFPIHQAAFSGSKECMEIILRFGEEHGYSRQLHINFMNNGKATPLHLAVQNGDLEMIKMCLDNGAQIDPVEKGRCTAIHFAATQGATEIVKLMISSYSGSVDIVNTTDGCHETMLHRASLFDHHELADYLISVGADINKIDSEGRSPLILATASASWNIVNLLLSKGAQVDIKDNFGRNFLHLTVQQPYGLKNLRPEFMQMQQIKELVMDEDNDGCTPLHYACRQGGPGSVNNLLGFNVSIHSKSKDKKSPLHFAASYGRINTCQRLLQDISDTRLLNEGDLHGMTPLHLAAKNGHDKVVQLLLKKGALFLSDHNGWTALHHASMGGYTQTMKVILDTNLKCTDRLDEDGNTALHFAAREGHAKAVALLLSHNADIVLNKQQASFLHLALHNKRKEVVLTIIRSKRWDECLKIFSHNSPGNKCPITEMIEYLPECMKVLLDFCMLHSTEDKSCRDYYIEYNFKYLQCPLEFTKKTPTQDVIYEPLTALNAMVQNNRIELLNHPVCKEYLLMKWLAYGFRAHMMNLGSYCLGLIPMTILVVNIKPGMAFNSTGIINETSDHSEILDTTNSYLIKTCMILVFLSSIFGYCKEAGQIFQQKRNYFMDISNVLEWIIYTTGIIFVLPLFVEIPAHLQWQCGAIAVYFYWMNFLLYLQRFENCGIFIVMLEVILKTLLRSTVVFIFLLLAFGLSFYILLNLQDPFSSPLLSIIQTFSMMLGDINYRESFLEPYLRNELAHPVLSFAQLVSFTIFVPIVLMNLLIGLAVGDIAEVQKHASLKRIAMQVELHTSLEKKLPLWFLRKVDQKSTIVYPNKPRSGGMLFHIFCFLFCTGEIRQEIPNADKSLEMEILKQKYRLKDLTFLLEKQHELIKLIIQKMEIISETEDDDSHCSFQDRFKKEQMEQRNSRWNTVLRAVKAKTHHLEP

SMILES | IC50
C#CC(CC)(CC)NC(=O)c1cc(I)ccc1NCCOC [Example 47, N-(3-Ethylpent-1-yn-3-yl)-5-iodo-2-(2-methoxyethylamino)benzamide] | 0.5 µM
C#CC(C)(C)NC(=O)c1cc(C(F)(F)F)ccc1NCCOC [Example 48, 2-(2-Methoxyethylamino)-N-(2-methylbut-3-yn-2-yl)-5-(trifluoromethyl)benzamide] | 5.7 µM
C#CC(C)(C)NC(=O)c1cc(F)ccc1NCCCC [Example 49, 2-(Butylamino)-5-fluoro-N-(2-methylbut-3-yn-2-yl)benzamide] | 1.1 µM
C#CC(C)(C)NC(=O)c1cc(I)ccc1NCCOC [Example 50, 5-Iodo-2-(2-methoxyethylamino)-N-(2-methylbut-3-yn-2-yl)benzamide] | 5.8 µM
C#CC(C)(C)NC(=O)c1cc(F)cnc1NCC(C)C [Example 51, 5-Fluoro-2-(isobutylamino)-N-(2-methylbut-3-yn-2-yl)nicotinamide] | 2.2 µM
C#CC(C)(C)NC(=O)c1cc(F)cnc1NCCC(C)C [Example 52, 5-Fluoro-2-(isopentylamino)-N-(2-methylbut-3-yn-2-yl)nicotinamide] | 1.2 µM
C#CC(C)(C)NC(=O)c1cc(F)ccc1NCCOC(F)(F)F [Example 53, 5-Fluoro-N-(2-methylbut-3-yn-2-yl)-2-(2-(trifluoromethoxy)-ethylamino)benzamide] | 1.9 µM
C#CC(C)(C)NC(=O)c1cc(F)ccc1NCCCC(F)(F)F [Example 54, 5-Fluoro-N-(2-methylbut-3-yn-2-yl)-2-(4,4,4-trifluorobutylamino)-benzamide] | 1.2 µM
C#CC(C)(C)NC(=O)c1cc(F)cc(F)c1NCCC(F)(F)F [Example 55, 3,5-Difluoro-N-(2-methylbut-3-yn-2-yl)-2-(3,3,3-trifluoropropylamino)-benzamide] | 1.7 µM
C#CC(C)(C)NC(=O)c1cc(C(F)(F)F)cnc1NCC(F)F [Example 56, 2-(2,2-Difluoroethylamino)-N-(2-methylbut-3-yn-2-yl)-5-(trifluoromethyl)nicotinamide] | 1.6 µM
C#CC(C)(C)NC(=O)c1cc(F)cnc1NCC(C)(F)F [Example 57, 2-(2,2-Difluoropropylamino)-5-fluoro-N-(2-methylbut-3-yn-2-yl)nicotinamide] | 4.7 µM
C#CC(C)(C)NC(=O)c1cc(C(F)(F)F)cnc1NCCC(F)F [Example 58, 2-(3,3-Difluoropropylamino)-N-(2-methylbut-3-yn-2-yl)-5-(trifluoromethyl)nicotinamide] | 1.1 µM
C#CC(C)(C)NC(=O)c1cc(Cl)cnc1NCC(C)(F)F [Example 59, 5-Chloro-2-(2,2-difluoropropylamino)-N-(2-methylbut-3-yn-2-yl)nicotinamide] | 2.3 µM
C#CC(C)(C)NC(=O)c1cc(Cl)cnc1NCCC(F)F [Example 60, 5-Chloro-2-(3,3-difluoropropylamino)-N-(2-methylbut-3-yn-2-yl)nicotinamide] | 1.8 µM
C#CC(C)(C)NC(=O)c1cc(F)c(F)cc1NCC(C)(C)C [Example 61, 4,5-Difluoro-N-(2-methylbut-3-yn-2-yl)-2-(neopentylamino) benzamide] | 0.8 µM
C#CC(C)(C)NC(=O)c1cc(F)c(F)cc1NCC(C)C [Example 62, 4,5-Difluoro-2-(isobutylamino)-N-(2-methylbut-3-yn-2-yl)benzamide] | 0.4 µM
C#CC(C)(C)NC(=O)c1cc(F)c(F)cc1NCCC [Example 63, 4,5-Difluoro-N-(2-methylbut-3-yn-2-yl)-2-(propylamino)benzamide] | 3.1 µM
C#CC(C)(C)NC(=O)c1ccccc1NCCCC [Example 64, 2-(Butylamino)-N-(2-methylbut-3-yn-2-yl)benzamide] | 1.5 µM
C#CC(C)(C)NC(=O)c1cc(F)c(F)cc1NCC [Example 65, 2-(Ethylamino)-4,5-difluoro-N-(2-methylbut-3-yn-2-yl)benzamide] | 4.9 µM
C#CC(C)(C)NC(=O)c1cc(F)c(F)cc1NCCC(F)(F)F [Example 66, 4,5-Difluoro-N-(2-methylbut-3-yn-2-yl)-2-(3,3,3-trifluoropropylamino)-benzamide] | 0.9 µM
C#CC(C)(C)NC(=O)c1cc(F)c(F)cc1NC(C)C [Example 67, 4,5-Difluoro-2-(isopropylamino)-N-(2-methylbut-3-yn-2-yl)benzamide] | 5.5 µM
C#CC(C)(CC(C)C)NC(=O)c1cc(F)c(F)cc1NCC(C)C (stereo not shown) [Example 68, N-(3,5-Dimethylhex-1-yn-3-yl)-4,5-difluoro-2-(isobutylamino)-benzamide] | 1.1 µM
C#CC(C)(NC(=O)c1cc(F)c(F)cc1NCC(C)C)C(C)C (stereo not shown) [Example 69, N-(3,4-Dimethylpent-1-yn-3-yl)-4,5-difluoro-2-(isobutylamino)-benzamide] | 0.3 µM
C#CC(C)(CCC)NC(=O)c1cc(F)c(F)cc1NCC(C)C (stereo not shown) [Example 70, 4,5-Difluoro-2-(isobutylamino)-N-(3-methylhex-1-yn-3-yl)benzamide] | 0.7 µM
C#CC(C)(C)NC(=O)c1ccc(F)cc1NCCC(F)(F)F [Example 71, 4-Fluoro-N-(2-methylbut-3-yn-2-yl)-2-(3,3,3-trifluoropropylamino) benzamide] | 0.7 µM

SMILES | IC50
C#CC(C)(C)NC(=O)c1ccc(C(F)(F)F)cc1NCCC(F)(F)F [Example 72, N-(2-methylbut-3-yn-2-yl)-4-(trifluoromethyl)-2-(3,3,3-trifluoropropyl-amino)benzamide] | 0.5 µM
C#CC(C)(C)NC(=O)c1ccc(OC)cc1NCCC(F)(F)F [Example 73, 4-Methoxy-N-(2-methylbut-3-yn-2-yl)-2-(3,3,3-trifluoropropylamino)-benzamide] | 2.2 µM
C#CC(C)(C)NC(=O)c1ccc(OC)cc1NCCC [Example 74, 4-Methoxy-N-(2-methylbut-3-yn-2-yl)-2-(propylamino)benzamide] | 7 µM
C#CC(C)(C)NC(=O)c1cc(OC(F)(F)F)ccc1NCCC(F)(F)F [Example 75, N-(2-Methylbut-3-yn-2-yl)-5-(trifluoromethoxy)-2-(3,3,3-trifluoropropylamino)benzamide] | 0.7 µM
C#CC(C)(C)NC(=O)c1cc(OC)ccc1NCCC(F)(F)F [Example 76, 5-Methoxy-N-(2-methylbut-3-yn-2-yl)-2-(3,3,3-trifluoropropyl-amino)benzamide] | 4.7 µM
C#CC(C)(C)NC(=O)c1cc(C)ccc1NCCC(F)(F)F [Example 77, 5-Methyl-N-(2-methylbut-3-yn-2-yl)-2-(3,3,3-trifluoropropylamino)-benzamide] | 0.9 µM
C#CC(C)(C)NC(=O)c1cc(SC)ccc1NCCC(F)(F)F [Example 78, N-(2-Methylbut-3-yn-2-yl)-5-(methylthio)-2-(3,3,3-trifluoropropyl-amino)benzamide] | 0.8 µM
C#CC(C)(C)NC(=O)c1ccccc1NCCC(F)(F)F [Example 79, N-(2-Methylbut-3-yn-2-yl)-2-(3,3,3-trifluoropropylamino)benzamide] | 1.8 µM
C#CC(C)(C)NC(=O)c1ccccc1NCC(C)C [Example 80, 2-(Isobutylamino)-N-(2-methylbut-3-yn-2-yl)benzamide] | 1.3 µM
C#CC(C)(C)NC(=O)c1ccccc1NCC(C)(C)C [Example 81, N-(2-Methylbut-3-yn-2-yl)-2-(neopentylamino)benzamide] | 1.3 µM
C#CC(C)(C)NC(=O)c1cc(F)c(F)cc1NC(C)(C)C [Example 82, 2-(tert-Butylamino)-4,5-difluoro-N-(2-methylbut-3-yn-2-yl)benzamide] | 5.4 µM
C#CC(C)(C)NC(=O)c1ccc(F)cc1NC(C)C [Example 83, 4-Fluoro-2-(isopropylamino)-N-(2-methylbut-3-yn-2-yl)benzamide] | 2.9 µM
C#CC(C)(C)NC(=O)c1ccc(C(F)(F)F)cc1NC [Example 84, 2-(Methylamino)-N-(2-methylbut-3-yn-2-yl)-4-(trifluoromethyl)-benzamide] | 7.5 µM
C#CC(C)(C)NC(=O)c1cc(OC(F)(F)F)ccc1NC [Example 85, 2-(Methylamino)-N-(2-methylbut-3-yn-2-yl)-5-(trifluoromethoxy)-benzamide] | 13.2 µM
C#CC(C)(C)NC(=O)c1cc(F)c(F)cc1NC1CC1 [Example 86, 2-(Cyclopropylamino)-4,5-difluoro-N-(2-methylbut-3-yn-2-yl) benzamide] | 2.2 µM
C#CC(C)(NC(=O)c1cc(F)c(F)cc1NCC)C(C)C (stereo not shown) [Example 87, N-(3,4-Dimethylpent-1-yn-3-yl)-2-(ethylamino)-4,5-difluorobenzamide] | 0.6 µM
C#CC(C)(C)NC(=O)c1cc(OC)c(OC)cc1NCC(C)C [Example 88, 2-(Isobutylamino)-4,5-dimethoxy-N-(2-methylbut-3-yn-2-yl)benzamide] | 14.2 µM
C#CC(C)(C)NC(=O)c1ccc(C(F)(F)F)cc1NCCOC [Example 89, 2-(2-Methoxyethylamino)-N-(2-methylbut-3-yn-2-yl)-4-(trifluoro-methyl)benzamide] | 8.6 µM
C#CC(C)(C)NC(=O)c1ccc(F)cc1NC1CC1 [Example 90, 2-(Cyclopropylamino)-4-fluoro-N-(2-methylbut-3-yn-2-yl)benzamide] | 4.8 µM
C#CC(C)(C)NC(=O)c1cc(F)ccc1NC1CC1 [Example 91, 2-(Cyclopropylamino)-5-fluoro-N-(2-methylbut-3-yn-2-yl)benzamide] | 7 µM
C#CC(C)(C)NC(=O)c1cc(F)ccc1NC(C)C [Example 92, 5-Fluoro-2-(isopropylamino)-N-(2-methylbut-3-yn-2-yl)benzamide] | 12.3 µM
C#CC(C)(C)NC(=O)c1cc(C)ccc1NC(C)C [Example 93, 2-(Isopropylamino)-5-methyl-N-(2-methylbut-3-yn-2-yl)benzamide] | 11.4 µM
C#CC(C)(C)NC(=O)c1ccc(C)cc1NCCC(F)(F)F [Example 94, 4-Methyl-N-(2-methylbut-3-yn-2-yl)-2-(3,3,3-trifluoropropylamino)-benzamide] | 1.8 µM
C#CC(C)(C)NC(=O)c1cc(Cl)cc(F)c1NC(C)C [Example 95, 5-Chloro-3-fluoro-2-(isopropylamino)-N-(2-methylbut-3-yn-2-yl)-benzamide] | 5.6 µM
